pIC50: −log10 of the molar value. Like-named read-outs stand apart in the source and are kept apart here. Where no end group is shown, it is not given here. The star is where a group is joined. Biotin = O=C1N[C@H]2[C@H](CS[C@H]2CCCCC(=O)*)N1

Assay [1] concerns the target DQ 7 (DQA1*0501/DQB1*0301) (Homo sapiens, UniProt P01909+P01920). The assay is described as follows: Peptide competition assay, soluble DQ molecules. The assay is classed as binding. To be noted: soluble DQ 7 (FIG. 3B).
The target of assay [2] is T1, DQ 9 (DQA1*0201/DQB1*0303) (Homo sapiens, UniProt P01909+P01920, A45G/C70K/E183D/E77G/F237L/F77L/G63E/H199R/I129T/K197E/L178F/L74F/Q57E/Q76R/R75H/S185I/S97I/T217I/V73L/Y48F/Y58L).
T1 construct: made in house; host or cells: insect cells, baculovirus expression system
As to the kind of experiment: Peptide competition assay, soluble DQ molecules. The assay is classed as binding. The following applies: soluble DQ 9 (FIG. 3A).

The target of assay [3] is DR 8 (DRB1*0801) (Homo sapiens, UniProt P01903+P01911, A100R/A103L/A169T/D86S/F76Y/H45Y/I96F/K41T/L162R/M171V/P40S/Q125H/Q178H/Q39Y/Q99D/R218S/R42G/S66Y/V115G/W38E). As to the kind of experiment: biochemical. The class given is binding. The following applies: DR 8 DRB1*0801, biotinyl-peptide GYR(A)6L; read-out: Competitor Peptide IC50.
Assay [4] has as its target T2, DR 4 (DRB1*0401) (Homo sapiens, UniProt P01903+P01911, A100K/A169T/F76Y/I96L/K127E/L162R/M171V/N62H/P40V/Q125Y/R42H/S133A/S149N/S66Y/V115G/V209L/W38E).
T2 construct: The class II molecules in the cell extracts were purified by immunoaffnity; endogenous in cells
As to the kind of experiment: biochemical. The class given is binding.

Assay [5] concerns the target T3, DR 2 (DRB5*0101) (Homo sapiens, UniProt P01903+Q30154).
T3 construct: expressed in transfected cells; host or cells: L cell transfectant L416.3
The assay is described as follows: biochemical. The class given is binding. The following applies: DR 2 DRB5*0101, biotinyl-peptide MBP; read-out: Competitor Peptide IC50.

The target in assay [6] is T4, DR 1 (DRB1*0101) (Homo sapiens, UniProt P01903+P01911, A100R/D57E/F55L/F60I/F76Y/I96L/L162R/M171V/P40L/Q125E/R42F/V115G/Y59C).
T4 construct: The class II molecules in the cell extracts were purified by immunoaffnity; endogenous in cells
As to the kind of experiment: biochemical. The assay is classed as binding. The following applies: DR 1 DRB1*0101, biotinyl-peptide GFK(A)7; read-out: Competitor Peptide IC50.

Assay [7] deals with DR 11 (5) (DRB1*1101) (Homo sapiens, UniProt P01903+P01911, A100R/A169T/A87E/I96F/K41T/L162R/M171V/P40S/Q125H/Q178H/Q39Y/Q99D/R42S/S66Y/T262R/V115G/W38E). The assay is described as follows: biochemical. The class given is binding. To be noted: DR 11 (5) DRB1*1101, biotinyl-peptide TT831-843; read-out: Competitor Peptide IC50.
Assay [8] addresses DR 7 (DRB1*0701) (Homo sapiens, UniProt P01903+P01911, A100R/A102G/A103Q/D57E/D86V/E43K/F76Y/K127E/L162R/M171V/P40G/Q125H/Q99D/R33Q/R42Y/R54Q/S133A/S66F/T210M/V115G/Y107V/Y59L/Y89S). The assay is described as follows: biochemical. The class given is binding. To be noted: DR 7 DRB1*0701, biotinyl-peptide GFK(A)7, pH 5; read-out: Competitor Peptide IC50.
Assay [9] addresses DR 13 (DRB1*1301) (Homo sapiens, UniProt P01903+P01911, A100E/A169T/K41T/L162R/M171V/P40S/Q125H/Q178H/Q39Y/Q99D/R42S/S66N/T262R/W38E/Y61H). The assay is described as follows: biochemical. To be noted: soluble DR 13, indicator GFK(A)7 (FIG. 2B); read-out: IC50, inhibition of binding of biotinylated GFK(A)7.
In assay [10] the target is T5, DR 3 (DRB1*0301) (Homo sapiens, UniProt P01903+P01911, A100K/A102G/A103R/A169T/F55Y/I96L/K41T/L162R/M171V/P40S/Q125H/Q178H/Q39Y/R42S/S66N/T106N/T262R/W38E/Y61H).
T5 construct: The class II molecules in the cell extracts were purified by immunoaffnity; endogenous in cells
The assay is described as follows: biochemical. The assay is classed as binding. The following applies: DR 3 DRB1*0301, biotinyl-peptide IAYD(A)5; read-out: Competitor Peptide IC50.

Assay [11] has as its system EBV-B cell line 9065 (DRB1*1301/DQB1*0603). As to the kind of experiment: Flow cytometry binding of biotinylated peptides to EBV-B cells. Further details: species or system human. To be noted: biotinylated peptide, EBV-B 9065 cells. On the procedure: For flow cytometry, EBV-B cells or L cells (2×10^5 cells), were incubated with an equal volume (100 μl) of biotinylated peptide (200 μg/ml) in each well of a U-bottomed 96-well plate. Following a 4-hour incubation on ice with gentle agitation, the unbound peptides were removed by washing. To increase the sensitivity of the fluorescent signal, two layers of FITC-Avidin were used to label the cells by incubating first with FITC-Avidin D, followed by biotinylated anti-Avidin D and again FITC-Avidin DCS (Vetor, Burlingame Calif.). Propidium Iodide (2.8 μg/ml) was added prior to FACS analysis to allow gating on viable cells.
A general note: A flow cytometer gives signals particle by particle.

In the case of `CSCC[C@H](NC(=O)[C@H](CCCNC(=N)N)NC(=O)[C@H](CCSC)NC(=O)[C@H](CCCCN)NC(=O)[C@H](CO)NC(=O)[C@@H](NC(=O)[C@@H]1CCCN1C(=O)[C@H](CCCCN)NC(=O)[C@@H]1CCCN1C(=O)[C@@H]1CCCN1C(=O)[C@@H](N)CCCCN)C(C)C)C(=O)N[C@@H](C)C(=O)N[C@H](C(=O)N1CCC[C@H]1C(=O)N[C@@H](CC(C)C)C(=O)N[C@@H](CC(C)C)C(=O)N[C@@H](CCSC)C(=O)N[C@@H](CCC(N)=O)C(=O)N[C@@H](C)C(=O)O)[C@@H](C)O` [CLIP83-101], the negative-log IC50 (pIC50) in [1] and in assay [2] was 6.30 in each case.

On to `CC(C)[C@H](NC(=O)[C@H](CC(N)=O)NC(=O)[C@@H]1CCCN1C(=O)[C@H](CC(N)=O)NC(=O)[C@H](C)NC(=O)[C@H](CC(N)=O)NC(=O)[C@@H]1CCCN1C(=O)[C@H](CC(=O)O)NC(=O)[C@@H](NC(=O)[C@H](CC(N)=O)NC(=O)[C@@H]1CCCN1C(=O)[C@H](CC(N)=O)NC(=O)[C@H](C)NC(=O)[C@H](CC(N)=O)NC(=O)[C@@H]1CCCN1C(=O)[C@@H](N)CC(=O)O)C(C)C)C(=O)O` [T1], for which the pIC50 (as a rule, −log10 of the IC50, conventionally taken in molar units) in assay [3] was < 4.00; in assay [4] (DR 4 DRB1*0401, biotinyl-peptide UD4, read-out: Competitor Peptide IC50), < 4.00; in [4] (soluble DR 4, indicator GFK(A)7 (FIG. 2A), read-out: IC50, inhibition of binding of biotinylated GFK(A)7), < 4.00; in [5], < 4.00; in assay [6], < 4.00; in assay [7], < 4.00. Also, the pIC50 in [8], in assay [9] and in assay [10] was < 4.00 in each case.

With “Biotinyl-T1: NH2 terminal biotinylated T1 peptide (Biotin-DPNANPNVDPNANPNV)”, the MFC entry in assay [11] is “could not be detected”.

Values taken from patent US6669945B1, “Universal T-cell epitopes for anti-malarial vaccines” (New York University, priority 1997, dated 2003).
